# From patent publication US9555038B2, “Heterocycle-substituted tetracyclic compounds and methods of use thereof for the treatment of viral diseases” (Merck Sharp & Dohme Corp., priority 2013, dated 2017)
# Like-named read-outs stand apart in the source and are kept apart here.
# Assays:
# HCV replicon 1A = test: Cell-based HCV Replicon Assay A, replicon 1A
# Summary of the method: (§1)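 2000 cells/well; 10 serial dilutions, top concentration 333.3 nM to 1.667 nM; 0.5% DMSO, 5% FBS; 3 days; lysis; multiplex TaqMan RT-PCR (NS5B/Neo plus cyclophilin), RNA from linear Ct standard curves.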
# HCV replicon 1B = test: Cell-based HCV Replicon Assay B, replicon 1B
# Summary of the method: (§2)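 EC50 defined as the drug concentration giving a CT increase of 1 above projected baseline, from real-time RT-PCR of replicon RNA using genotype-specific primers and probes. Cells were seeded in 5% FBS, dosed after 24 h and incubated 3 days before lysis.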
# HCV replicon 1AQ30D = test: Cell-based HCV Replicon Assay B, replicon 1AQ30D
# Summary of the method: as §2
# HCV replicon 2B = test: Cell-based HCV Replicon Assay A, replicon 2B
# Summary of the method: as §1
# HCV replicon 1AY93H = test: Cell-based HCV Replicon Assay A, replicon 1AY93H
# Summary of the method: as §1
# [1] = read-out: 1A Q30D IC50, replicon 1AQ30D
# [2] = read-out: 1A Y93H IC50, replicon 1AY93H
# [3] = Hepatitis C virus, read-out: 1A Q30D IC50 (nM), replicon 1AQ30D
# [4] = replicon 1AQ30D, read-out: 1A Q30D IC50
# [5] = replicon 1AY93H, read-out: 1A Y93H IC50
# [6] = Hepatitis C virus, read-out: 1A Y93H IC50 (nM), replicon 1AY93H
# [7] = Hepatitis C virus, read-out: 2B IC50 (nM), replicon 2B
Compound,IC50 (HCV replicon 1A) [pM],IC50 (HCV replicon 1B) [pM],IC50 (HCV replicon 1AQ30D; [1]) [nM],"IC50 (HCV replicon 2B; read-out: 2B IC50, replicon 2B) [nM]",IC50 (HCV replicon 1AY93H; [2]) [nM],IC50 (HCV replicon 1A; Hepatitis C virus) [pM],IC50 (HCV replicon 1AQ30D; [3]) [nM],IC50 (HCV replicon 1AQ30D; [4]) [nM],"IC50 (HCV replicon 2B; replicon 2B, read-out: 2B IC50) [nM]",IC50 (HCV replicon 1AY93H; [5]) [nM],IC50 (HCV replicon 1B; Hepatitis C virus) [pM],IC50 (HCV replicon 1AY93H; [6]) [nM],IC50 (HCV replicon 2B; [7]) [nM]
"COC(=O)NC(C(=O)N1[C@@H]2C[C@@H]2C[C@H]1c1ncc(-c2ccc3c(c2)cc2n3C(c3cnc(C4(C)CCCC4)s3)Oc3cc(-c4cnc([C@@H]5CCCN5C(=O)[C@@H](NC(=O)OC)C(C)C)[nH]4)cc(F)c3-2)[nH]1)C1CCOC(C)(C)C1 (single isomer, unassigned) [Compound 477]",3.2,3.7,0.009,0.008,0.003,,,,,,,,
"CCCOCc1ncc(C2Oc3cc(-c4cnc([C@@H]5CCCN5C(=O)[C@@H](NC(=O)OC)C(C)C)[nH]4)cc(F)c3-c3cc4cc(-c5cnc([C@@H]6CCCN6C(=O)[C@@H](NC(=O)OC)C(C)C)[nH]5)ccc4n32)s1 (single isomer, unassigned) [Compound 492]",2.8,2.9,0.535,0.146,0.03,,,,,,,,
"CCCOCc1ncc(C2Oc3cc(-c4cnc([C@@H]5CCCN5C(=O)[C@@H](NC(=O)OC)C(C)C)[nH]4)cc(F)c3-c3cc4cc(-c5cnc([C@@H]6CCCN6C(=O)[C@@H](NC(=O)OC)C(C)C)[nH]5)ccc4n32)s1 (single isomer, unassigned) [Compound 499]",6.9,8.8,1.09,0.622,0.223,,,,,,,,
"CCCOCc1ncc(C2Oc3cc(-c4cnc([C@@H]5CCCN5C(=O)[C@@H](NC(=O)OC)C(C)C)[nH]4)cc(F)c3-c3cc4cc(-c5cnc([C@@H]6CCCN6C(=O)[C@@H](NC(=O)OC)C(C)C)[nH]5)ccc4n32)s1 (single isomer, unassigned) [Compound 500]",22.5,18.4,16.7,1.67,7.79,,,,,,,,
"COC(=O)N[C@H](C(=O)N1CCC[C@H]1c1ncc(-c2cc(F)c3c(c2)OC(c2cnc(C4(C)CC4)s2)n2c-3cc3cc(-c4cnc([C@@H]5CCCN5C(=O)[C@@H](NC(=O)OC)C(C)C)[nH]4)ccc32)[nH]1)C(C)C (single isomer, unassigned) [Compound 511]",,8.7,,0.095,0.049,9.7,0.847,,,,,,
"COC(=O)N[C@H](C(=O)N1CCC[C@H]1c1ncc(-c2cc(F)c3c(c2)OC(c2cnc(CC(C)C)s2)n2c-3cc3cc(-c4cnc([C@@H]5CCCN5C(=O)[C@@H](NC(=O)OC)C(C)C)[nH]4)ccc32)[nH]1)C(C)C (single isomer, unassigned) [Compound 514]",2.2,3,,,,,,0.174,0.035,0.012,,,
"COC(=O)N[C@H](C(=O)N1CCC[C@H]1c1ncc(-c2cc(F)c3c(c2)OC(c2cnc(C4CC4)s2)n2c-3cc3cc(-c4cnc([C@@H]5CC6(C)CC6N5C(=O)[C@@H](NC(=O)OC)C(C)C)[nH]4)ccc32)[nH]1)C(C)C (single isomer, unassigned) [Compound 518]",2.5,2.4,,,,,,0.099,0.015,0.016,,,
"COC(=O)N[C@H](C(=O)N1CCC[C@H]1c1ncc(-c2cc(F)c3c(c2)OC(c2cnc(C4CC4)s2)n2c-3cc3cc(-c4cnc([C@@H]5CC6(C)CC6N5C(=O)[C@@H](NC(=O)OC)C(C)C)[nH]4)ccc32)[nH]1)C(C)C (single isomer, unassigned) [Compound 519]",3.1,2.1,,,,,,0.951,0.598,0.669,,,
"COC(=O)N[C@H](C(=O)N1CCC[C@H]1c1ncc(-c2cc(F)c3c(c2)OC(c2cnc(CC(C)(C)C)s2)n2c-3cc3cc(-c4cnc([C@@H]5CCCN5C(=O)[C@@H](NC(=O)OC)C(C)C)[nH]4)ccc32)[nH]1)C(C)C (single isomer, unassigned) [Compound 522]",1.4,1,,,,,,0.163,0.015,0.011,,,
"COC(=O)N[C@H](C(=O)N1CCC[C@H]1c1ncc(-c2cc(F)c3c(c2)OC(c2cnc(C4CCOCC4)s2)n2c-3cc3cc(-c4cnc([C@@H]5CCCN5C(=O)[C@@H](NC(=O)OC)C(C)C)[nH]4)ccc32)[nH]1)C(C)C (single isomer, unassigned) [Compound 531]",,,,0.056,0.022,2.5,0.328,,,,3.8,,
"COC(=O)N[C@H](C(=O)N1CCC[C@H]1c1ncc(-c2cc(F)c3c(c2)OC(c2cnc(Nc4ccc(F)cc4)s2)n2c-3cc3cc(-c4cnc([C@@H]5CCCN5C(=O)[C@@H](NC(=O)OC)C(C)C)[nH]4)ccc32)[nH]1)C(C)C (single isomer, unassigned) [Compound 534]",,,,0.03,,2.4,0.267,,,,3,0.094,
"COC(=O)N[C@H](C(=O)N1CCC[C@H]1c1ncc(-c2cc(F)c3c(c2)OC(c2cnc(Nc4ccc(F)cc4)s2)n2c-3cc3cc(-c4cnc([C@@H]5CCCN5C(=O)[C@@H](NC(=O)OC)C(C)C)[nH]4)ccc32)[nH]1)C(C)C (single isomer, unassigned) [Compound 535]",3.1,3.2,0.172,0.012,0.084,,,,,,,,
"COC(=O)NC(C(=O)N1CCC[C@H]1c1ncc(-c2ccc3c(c2)cc2n3C(c3cnc(CC(C)C)s3)Oc3cc(-c4cnc([C@@H]5CCCN5C(=O)[C@@H](NC(=O)OC)C(C)C)[nH]4)cc(F)c3-2)[nH]1)C1CCOC(C)(C)C1 (single isomer, unassigned) [Compound 544]",3.1,,0.051,0.006,0.005,,,,,,3.6,,
"COC(=O)NC(C(=O)N1CCC[C@H]1c1ncc(-c2ccc3c(c2)cc2n3C(c3cnc(CC(C)C)s3)Oc3cc(-c4cnc([C@@H]5CCCN5C(=O)[C@@H](NC(=O)OC)C(C)C)[nH]4)cc(F)c3-2)[nH]1)C1CCOC(C)(C)C1 (single isomer, unassigned) [Compound 545]",2.6,2.8,0.015,0.006,0.004,,,,,,,,
"COC(=O)NC(C(=O)N1CCC[C@H]1c1ncc(-c2ccc3c(c2)cc2n3C(c3cnc(CC(C)C)s3)Oc3cc(-c4cnc([C@@H]5CCCN5C(=O)[C@@H](NC(=O)OC)C(C)C)[nH]4)cc(F)c3-2)[nH]1)C1C[C@@H](C)O[C@@H](C)C1 (single isomer, unassigned) [Compound 547]",2.8,,,0.006,0.005,,0.028,,,,1.8,,
CCCc1ncc(C2Oc3cc(-c4cnc([C@@H]5CCCN5C(=O)[C@@H](NC(=O)OC)C(C)C)[nH]4)cc(F)c3-c3cc4cc(-c5cnc([C@@H]6CCCN6C(=O)[C@@H](NC(=O)OC)C(C)C)[nH]5)ccc4n32)s1 (some centres unmarked) [Compound 15],,3,,0.025,0.0059,2.9,0.118,,,,,,
COC(=O)N[C@H](C(=O)N1CCC[C@H]1c1nc(-c2cc(F)c3c(c2)OC(c2cnc(-c4cnccn4)s2)n2c-3cc3cc(-c4cnc([C@@H]5CCCN5C(=O)[C@@H](NC(=O)OC)C(C)C)[nH]4)ccc32)c[nH]1)C(C)C (some centres unmarked) [Compound 424],,,,,,1.9,0.058,,,,694,0.0554,0.003
COC(=O)NC(C(=O)N1CCC[C@H]1c1ncc(-c2ccc3c(c2)cc2n3C(c3cnc(CC(C)(C)C)s3)Oc3cc(-c4cnc([C@@H]5CCCN5C(=O)[C@@H](NC(=O)OC)C(C)C)[nH]4)cc(F)c3-2)[nH]1)C1CCOC(C)(C)C1 (some centres unmarked) [Compound 443],,,,,,3.1,0.028,,,,3.1,0.008,0.006
COC(=O)N[C@H](C(=O)N1CCC[C@H]1c1ncc(-c2cc(F)c3c(c2)OC(c2cnc(C4CCCCC4)s2)n2c-3cc3cc(-c4cnc([C@@H]5CCCN5C(=O)[C@@H](NC(=O)OC)C(C)C)[nH]4)ccc32)[nH]1)C(C)C (some centres unmarked) [Compound 527],,,,0.014,0.005,2.4,0.065,,,,2.9,,
